Experimental data: patent US12545653B2, “Compound as PPAR agonist and application thereof” (USA Elixiria Biotech Inc., priority 2019, dated 2026)

Tests used:
klotho gene = experiment: In vivo brain transcriptional activity of klotho gene (RT-PCR of brain mRNA); parameters: species or system mouse; conditions: 10 mg/kg body weight/day tail vein
Procedure: To verify this hypothesis, adult male Kunming mice were used in the experiments. […] The injection volume is 8 ml/kg body weight. Dimethyl sulfoxide (DMSO) was used as a vehicle control of the compounds. […] The RNA was then reverse-transcribed to the cDNA, and quantified by SYBR Green fluorescence quantitative PCR kit (HaiGene) and a quantitative PCR system (Bio-Rad Min-Opticon Type 2) were used for real-time fluorescent quantitative polymerase chain reaction (RT-PCR). The mouse gene primers were design as follows: • KLOTHO-forward 5′-[…]-3′; • LOTHO-reverse 5′-[…]-3′; • GAPDH-forward 5′-[…]-3′; • GAPDH-reverse 5′-[…]-3′.
Data analysis was performed using the 2^−ΔΔct method. Semi-quantitative values of gene expression were then normalized by the control mean.

[1] = system: rat model of hyperglycemia-induced nephropathy; experiment: Hyperglycemia-induced nephropathy model (streptozotocin); format: in vivo; conditions: streptozotocin rats, 5 mg/kg body weight/day in food, 90 days
Procedure: The method was as follows:
Wild type Sprague-Dawley rats were used. The compounds was dissolved in DMSO and mixed into food pellets. The animals were given ad libitum access to the pellets. […] In addition, 3 days before compound treatment, the animal of group 2 to 4 were given a single intraperitoneal injection of streptozotocin, and 3 days later, blood glucose levels were measured from tail veins using a glucose meter. Animals with blood glucose levels above 500˜650 milligrams per deciliter were considered as hyperglycemia and were used for further study. No any side effect, or significant body weight changes, or significant dietary changes were found during the administration. After 90 days after initiation of treatment, blood pressure values were measured with the tail cuff system. The day before the kidneys were harvested, animals were placed in metabolic cages for 24 h for urine collection, and albumin to creatinine ratio (ACR) was measured. Animals were then fasted for 12 hours and sacrificed under anesthesia with a 10% chloral hydrate solution (0.3 g/kg). Serum samples were isolated and biochemical parameters were analyzed with by enzyme colorimetry in an automatic analyzer (Roche) to determine the FBG (fasting blood glucose) level (unit millimole/L). In addition, fasting insulin (FINS) levels, where the units are milliIU/L, were determined by enzyme-linked immunosorbent assay (ELISA) method with anti-rat insulin antibodies, and TNF-α was detected by rat tumor necrosis factor-α (TNF-α) ELISA kit (BD). […] The difference is significant with P<0.05.

APP/PS1 transgenic mice = experiment: Alzheimer's disease model, eight-arm radial water maze and brain gene expression; format: in vivo, mouse; conditions: 30 days in food, 10 mg/kg body weight/day (donepezil 3 mg/kg body weight/day)
Description: A common indicator used in academia in memory and dementia experiments is the number of errors in the water maze (reference memory). More errors mean poorer memory. On the last 3 days of dosing, eight-arm radial water maze was used by experimenters who were blind to drug treatment. As a classic experimental instrument, to detect slight deficits in learning and memory, the eight-arm water maze is more sensitive than not only Morris maze, but also Six-arm radial water maze. For details, see reference 8: Alamed J et al. Two-day radial-arm water maze learning and memory task; robust resolution of amyloid-related memory deficits in transgenic mice [J]. […] This experiment uses an eight-arm water maze built in accordance with the above literature. The eight-arm water maze is placed in a basin with an interior diameter of 102 cm. Each arm measures 30 cm long, 14.5 cm wide, and 40 cm high. Escape platform is located at the end of one of the arms. In the reference memory version of the task described here, the goal arm is held constant for all trials, with a different start arm on successive trials. On day one, mice received 12 trials, with trials alternating between visible and hidden platform. On day 2 and 3, mice received 12 additional trials but the platform was kept hidden throughout the trials. Entry into an incorrect arm was scored as a spatial reference error. Errors were averaged into three trial blocks, with four blocks per day, e.g., the first block (the 1st to 3rd trial), the second block (the 4th to 6th trial), and so on. […]. The line charts were made with the number of blocks as the abscissa and the average of the number of errors as the ordinate. At the end of the experiments, the cerebral cortex and hippocampus of the mice were removed, RNA was extracted, and the expression of many genes was analyzed by semi-quantitative RT-PCR. […] The difference is significant with P<0.05.

PPARγ = target: T1, PPARγ (Homo sapiens, UniProt P37231); experiment: In vitro transcriptional activity of PPARγ gene (PPRE-luciferase reporter, HEK 293 T cells); format: cell-based; conditions: HEK 293 T cells transfected with PPARγ expression and PPRE-luc plasmids, 21 hours; read-out: EC50 of PPARγ gene activation
T1 construct: expressed in transfected cells; host or cells: HEK 293 T cells
T1 sequence (P37231 1-505): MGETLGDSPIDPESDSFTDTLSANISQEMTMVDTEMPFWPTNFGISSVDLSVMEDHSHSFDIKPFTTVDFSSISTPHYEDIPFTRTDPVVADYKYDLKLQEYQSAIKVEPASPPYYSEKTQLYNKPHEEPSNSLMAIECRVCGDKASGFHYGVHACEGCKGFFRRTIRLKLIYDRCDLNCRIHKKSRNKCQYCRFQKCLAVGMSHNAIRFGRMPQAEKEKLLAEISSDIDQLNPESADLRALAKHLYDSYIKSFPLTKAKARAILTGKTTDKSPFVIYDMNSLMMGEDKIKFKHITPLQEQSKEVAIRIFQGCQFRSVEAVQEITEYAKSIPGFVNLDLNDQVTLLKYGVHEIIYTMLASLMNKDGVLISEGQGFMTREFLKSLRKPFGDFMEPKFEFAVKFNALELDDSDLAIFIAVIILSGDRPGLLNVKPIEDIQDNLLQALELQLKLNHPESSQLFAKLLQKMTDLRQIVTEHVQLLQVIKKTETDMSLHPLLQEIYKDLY
Description: In this experiment, the PPARγ gene was used as target gene to detect the in vitro transcription activity of the compounds. The compounds of interest were detected was first dissolved with dimethyl sulfoxide (DMSO). […] First two plasmids were constructed: PPARγ protein expression plasmid and luciferase reporter plasmid. They are both from the lentiviral plasmid pLV-CMVIE-ZsGreen-Puro, whose DNA sequence contains the cytomegalovirus immediate early (CMVie) promoter, ZsGreen and Puro dual reporter. The PPARγ expression plasmid pLV-CMVIE-PPAR[…]-ZsGreen-Puro was constructed by cloning full-length coding sequences of the pertinent receptors into pHBLV-CMVIE-ZsGreen-Puro vector. To construct the luciferase (luc) reporter plasmid pLV-PPRE-luc-ZsGreen-Puro, the CMVie promoter in plasmid pHBLV-CMVIE-ZsGreenPuro was first replaced by a peroxisome proliferator responsive element (PPRE) containing fragments comprised the nucleotide sequence 50-[…], repeated four times in tandem, to generate a new plasmid, at a multiple cloning site of which the luc gene was then inserted. […] The compounds used for screening are representatives for compounds listed in Table 2, and Tables 3 of the present invention. […] Cells were distributed in 10-cm tissue culture plates at a density of 5.5 million cells per plate, and then transfected with the luciferase reporter plasmid (6 nanogram/plate) and the PPARγ expression plasmid (18 nanogram/plate). Cells were cultured for 6 hours. […] Then the cells were distributed in 96-well plates at a density of 20,000 cells per well. After incubation for 6 h, compounds or control with different concentration were placed into each well, resulting in the finical concentration of […] with each concentration in triplicate. Twenty-one hours later, promoter activation was detected by the addition of SteadyLite (PerkinElmer, Waltham, MA) and GloMax 96 Microplate Luminometer (Promega, Madison, WI). The amount of Luminometer emitted from each well is positively correlated with the expression of PPARγ gene. A three-parameter Sigmoid function curve was used to fit the obtained data. The abscissa represents the logarithmic value of the concentration, and the ordinate represents the percentage of PPARγ gene activation relative to those of the control. […] In Statistical analysis, the coefficient of variation is used to measure the robustness and repeatability of the experiment. […] The difference is significant with P<0.05. EC50 is a parameter of its activity.

LN-229 cells = experiment: Brain cancer model, LN-229 cells injected into the striatum, tumor volume; format: in vivo, mouse; conditions: mice with LN-229 cells in striatum, 5 mg/kg body weight/day
Procedure: The treatment lasted for a total of 30 days. The compounds was dissolved in DMSO and mixed into food pellets. The animals were given ad libitum access to the pellets. […] The difference is significant with P<0.05.

CCc1ccc(CC/C=C/c2ccc3c(c2)NC(=O)CC3)cc1 [ELB00727, (E)-7-(4-(4-ethylphenyl)but-1-en-1-yl)-3,4-dihydroquinolin-2(1H)-one]
mRNA level of klotho gene in the brain of the mouse relative to vehicle control group (klotho gene; after 10 days of continuous injection): more than twice
fold induction at 10 mg/kg (klotho gene; Mus musculus, iv, 720 h, after 30 days of continuous injection, read-out: mRNA level of klotho gene in the brain of the mouse relative to vehicle control group): > 5
blood TNF-α level compared with disease control group [1]: significant TNF-α level reduction
insulin resistance index ISI=ln (FBG*FINS) compared with disease control group [1]: significant ISI increase
urine albumin to creatinine ratio (ACR) compared with disease control group [1]: significant ACR reduction
number of errors in water maze on the third day (APP/PS1 transgenic mice; 5 on the first day): ~1
reduction in the number of errors (reference memory), third day compared with first day (APP/PS1 transgenic mice; eight-arm water maze): significant
EC50 (PPARγ): < 6.4 µM
tumor volume at 30 days compared with disease control group (LN-229 cells): significant tumor volume reduction
